Experimental data: ChEMBL document CHEMBL2074547, “Efflux of sphingoid bases by P-glycoprotein in human intestinal Caco-2 cells” (Biosci Biotechnol Biochem, 2004)

Target: ATP-dependent translocase ABCB1 (Homo sapiens, UniProt P08183)
Experiment: TP_TRANSPORTER: cell accumulation (digoxin-sensitive) in Caco-2 cells
Assay type: functional, cell-based

ATP-dependent translocase ABCB1, sequence (P08183 whole entry): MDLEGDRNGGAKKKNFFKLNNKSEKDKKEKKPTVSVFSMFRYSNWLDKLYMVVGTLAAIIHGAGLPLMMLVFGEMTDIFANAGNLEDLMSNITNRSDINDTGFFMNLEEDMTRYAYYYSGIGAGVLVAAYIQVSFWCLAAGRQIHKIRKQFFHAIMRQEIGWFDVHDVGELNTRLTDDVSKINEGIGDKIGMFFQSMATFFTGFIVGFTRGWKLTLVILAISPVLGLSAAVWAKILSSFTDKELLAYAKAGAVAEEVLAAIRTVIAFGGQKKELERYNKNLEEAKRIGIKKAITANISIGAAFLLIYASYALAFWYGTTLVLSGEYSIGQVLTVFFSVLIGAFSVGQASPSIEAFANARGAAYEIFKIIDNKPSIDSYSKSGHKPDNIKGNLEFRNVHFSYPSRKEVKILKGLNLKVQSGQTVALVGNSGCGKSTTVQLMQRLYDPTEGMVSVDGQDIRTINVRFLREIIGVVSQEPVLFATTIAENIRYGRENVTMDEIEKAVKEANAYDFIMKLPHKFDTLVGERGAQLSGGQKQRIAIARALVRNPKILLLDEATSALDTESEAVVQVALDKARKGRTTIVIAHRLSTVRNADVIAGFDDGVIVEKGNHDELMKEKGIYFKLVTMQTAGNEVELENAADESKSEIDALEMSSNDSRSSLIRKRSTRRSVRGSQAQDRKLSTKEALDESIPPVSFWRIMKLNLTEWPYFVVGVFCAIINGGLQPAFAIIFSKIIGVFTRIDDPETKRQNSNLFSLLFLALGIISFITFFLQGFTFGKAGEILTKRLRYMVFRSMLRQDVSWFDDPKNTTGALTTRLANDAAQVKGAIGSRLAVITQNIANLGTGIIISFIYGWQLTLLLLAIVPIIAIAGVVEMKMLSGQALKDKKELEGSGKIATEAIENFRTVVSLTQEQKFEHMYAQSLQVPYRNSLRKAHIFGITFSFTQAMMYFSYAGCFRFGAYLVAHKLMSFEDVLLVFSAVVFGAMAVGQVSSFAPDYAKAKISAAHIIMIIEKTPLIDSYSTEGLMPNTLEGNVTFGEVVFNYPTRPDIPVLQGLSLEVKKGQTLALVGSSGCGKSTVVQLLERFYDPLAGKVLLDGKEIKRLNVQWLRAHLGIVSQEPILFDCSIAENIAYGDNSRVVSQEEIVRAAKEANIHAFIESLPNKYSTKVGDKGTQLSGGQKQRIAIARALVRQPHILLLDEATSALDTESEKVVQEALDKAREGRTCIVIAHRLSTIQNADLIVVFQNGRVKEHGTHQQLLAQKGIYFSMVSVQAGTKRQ

Activity	Compound
substrate [+]	CCCCCCCCC/C(C)=C/CC/C=C/C(O)C(N)CO (configuration not stated)
substrate [+]	CCCCCCCCC/C=C/CC/C=C/C(O)C(N)CO (configuration not stated)
substrate [+]	CCCCCCCCC/C=C\CC/C=C/C(O)C(N)CO (configuration not stated)
substrate [+]	CCCCCCCCC/C=C/CCCCC(O)C(N)CO (configuration not stated)
substrate [+]	CCCCCCCCC/C=C\CCCCC(O)C(N)CO (configuration not stated)
substrate [+]	CCCCCCCCCCCCCCC[C@@H](O)[C@@H](N)CO [DIHYDROSPINGOSINE]
is not a substrate [-]	CCCCCCCCCCCCC/C=C/[C@@H](O)[C@@H](N)CO [SPHINGOSINE]
